Structures can show the parent of a compound that is named as a salt.

The first experiment deals with XBP1s-luc 293 LUC. The experiment can be described thus: cellular PD assay, XBP1s-LUC reporter (Example 903). It counts as cell-based. The following applies: Table 1; read-out: XBP1s-luc 293 LUC (IC50). In a few lines: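 A luciferase fusion, in frame and expressed only when the XBP1 transcript is spliced, served as the readout of cellular IRE1α activity in an XBP1-Luc reporter line.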
In general, IC50 refers to the concentration at which inhibition is half-maximal. `Cc1ccc2c(N3CCC(C)S3(=O)=O)cccc2c1Oc1ncccc1-c1ccnc(N[C@H]2CCCNC2)n1` (mixture of isomers) [Example 245, 5-Methyl-2-(6-methyl-5-((3-(2-((S)-piperidin-3-ylamino)pyrimidin-4-yl)pyridin-2-yl)oxy)naphthalen-1-yl)isothiazolidine 1,1-dioxide]: the IC50 worked out at 294 nM.

Consider `CCCCNc1cccc2c(Oc3ncccc3-c3ccnc(N[C@H]4CCCNC4)n3)c(C)ccc12` [Example 197, (S)-4-(2-((5-(Butylamino)-2-methylnaphthalen-1-yl)oxy)pyridin-3-yl)-N-(piperidin-3-yl)pyrimidin-2-amine], for which the IC50 turned out to be 228 nM.

On to `Cc1ccc2c(NC(=O)[C@H]3CCC(F)(F)C3)cccc2c1Oc1ncccc1-c1ccnc(N[C@H]2CCCNC2)n1` (single isomer, unassigned) [Example 270], for which the IC50 was determined as 189 nM.

For `Cc1ccc2c(NS(=O)(=O)Cc3ccccc3)c(F)ccc2c1Oc1ncccc1-c1ccnc(N[C@H]2CCCNC2)n1` [Example 283, (S)—N-(2-Fluoro-6-methyl-5-((3-(2-(piperidin-3-ylamino)pyrimidin-4-yl)pyridin-2-yl)oxy)naphthalen-1-yl)-1-phenylmethanesulfonamide], the IC50 turned out to be 2.96 nM.

`Cc1ccc2c(NS(=O)(=O)Cc3ccc(F)cc3)cccc2c1Oc1ncccc1-c1ccnc(N[C@H]2CCCNC2)n1` [Example 150, (S)-1-(4-Fluorophenyl)-N-(6-methyl-5-((3-(2-(piperidin-3-ylamino)pyrimidin-4-yl)pyridin-2-yl)oxy)naphthalen-1-yl)methanesulfonamide]: the IC50 came out at 25 nM.

In the case of `CO[C@@H](CNc1cccc2c(Oc3ncccc3-c3ccnc(N[C@H]4CCCNC4)n3)c(C)ccc12)C(F)(F)F` [Example 326, 4-(2-((2-Methyl-5-(((S)-3,3,3-trifluoro-2-methoxypropyl)amino)naphthalen-1-yl)oxy)pyridin-3-yl)-N—((S)-piperidin-3-yl)pyrimidin-2-amine], the IC50 amounted to 28.4 nM.

Take `Cc1ccc2c(NS(=O)(=O)CCC(F)(F)F)cccc2c1Oc1ncccc1-c1ccnc(N[C@H]2CCCNC2)n1` [Example 123, (S)-3,3,3-Trifluoro-N-(6-methyl-5-((3-(2-(piperidin-3-ylamino)pyrimidin-4-yl)pyridin-2-yl)oxy)naphthalen-1-yl)propane-1-sulfonamide hydrochloride]: the IC50 was 84 nM.

`Cc1ccc2c(NS(=O)(=O)[C@H](C)c3ccccc3)cccc2c1Oc1ncccc1-c1ccnc(N[C@H]2CCCNC2)n1` [Example 215, (R)—N-(6-methyl-5-((3-(2-((S)-piperidin-3-ylamino)pyrimidin-4-yl)pyridin-2-yl)oxy)naphthalen-1-yl)-1-phenylethanesulfonamide]: the IC50 was determined as 211 nM.

As to `Cc1ccc2c(NCc3ccn(C)n3)cccc2c1Oc1ncccc1-c1ccnc(N[C@@H]2CNC[C@H](C)C2)n1` [Example 330, 4-(2-((2-Methyl-5-(((1-methyl-1H-pyrazol-3-yl)methyl)amino)naphthalen-1-yl)oxy)pyridin-3-yl)-N-((3S,5R)-5-methylpiperidin-3-yl)pyrimidin-2-amine], the IC50 was 197 nM.

Turning to `Cc1ccc2c(NS(=O)(=O)Cc3ccccc3C(F)(F)F)cccc2c1Oc1ncccc1-c1ccnc(N[C@H]2CCCNC2)n1` [Example 142, (S)—N-(6-Methyl-5-((3-(2-(piperidin-3-ylamino)pyrimidin-4-yl)pyridin-2-yl)oxy)naphthalen-1-yl)-1-(2-(trifluoromethyl)phenyl)methanesulfonamide], the IC50 was 8 nM.

With `CCCS(=O)(=O)Nc1cccc2c(Oc3ncc(Br)cc3-c3ccnc(N[C@H]4CCCNC4)n3)c(C)ccc12` [Example 336, (S)-N-(5-((5-Bromo-3-(2-(piperidin-3-ylamino)pyrimidin-4-yl)pyridin-2-yl)oxy)-6-methylnaphthalen-1-yl)propane-1-sulfonamide], the IC50 came to 540 nM.

As to `Cc1ccc2c(NC(=O)[C@@H]3CC34CCC4)c(F)ccc2c1Oc1ncccc1-c1ccnc(N[C@H]2CCCNC2)n1` (single isomer, unassigned) [Example 387], the IC50 came to 28.3 nM.

For `Cc1ccc2c(NS(=O)(=O)N3CCCCC3)cccc2c1Oc1ncccc1-c1ccnc(N[C@H]2CCCNC2)n1` [Example 114, (S)—N-(6-Methyl-5-((3-(2-(piperidin-3-ylamino)pyrimidin-4-yl)pyridin-2-yl)oxy)naphthalen-1-yl)piperidine-1-sulfonamide hydrochloride], the IC50 turned out to be 382 nM.

For the compound `Cc1ccc2c(NCC3CC3)cccc2c1Oc1ncccc1-c1ccnc(N[C@H]2CCCNC2)n1` [Example 223, (S)-4-(2-((5-((Cyclopropylmethyl)amino)-2-methylnaphthalen-1-yl)oxy)pyridin-3-yl)-N-(piperidin-3-yl)pyrimidin-2-amine], the IC50 is 212 nM.

Take `CCC(C)S(=O)(=O)Nc1cccc2c(Oc3ncccc3-c3ccnc(N[C@H]4CCCNC4)n3)c(C)ccc12` (mixture of isomers) [Example 134, N-(6-Methyl-5-((3-(2-((S)-piperidin-3-ylamino)pyrimidin-4-yl)pyridin-2-yl)oxy)naphthalen-1-yl) butane-2-sulfonamide]: the IC50 worked out at 260 nM.

For the compound `Cc1ccc2c(NC(=O)[C@H]3CC34CCC4)cccc2c1Oc1ncccc1-c1ccnc(N[C@H]2CCCNC2)n1` (single isomer, unassigned) [Example 339], the IC50 worked out at 137 nM.

As for `CCCS(=O)(=O)Nc1cccc2c(Oc3ncccc3-c3ccnc(N[C@@H]4CNC[C@@H](F)C4)n3)c(C)ccc12` [Example 165, N-(5-((3-(2-(((3S,5S)-5-Fluoropiperidin-3-yl)amino)pyrimidin-4-yl)pyridin-2-yl)oxy)-6-methylnaphthalen-1-yl)propane-1-sulfonamide], the IC50 amounted to 164 nM.

The experiment is the same for the next values; noted with them: Table 2; read-out: XBP1s-luc 293 LUC (IC50).
Consider `Cc1ccc2c(NS(=O)(=O)Cc3nn(C)cc3Cl)c(F)ccc2c1Oc1ncccc1-c1ccnc(N[C@H]2CCCNC2)n1` [Example 448, 1-(4-Chloro-1-methyl-pyrazol-3-yl)-N-[2-fluoro-6-methyl-5-[[3-[2-[[(3S)-3-piperidyl]amino]pyrimidin-4-yl]-2-pyridyl]oxy]-1-naphthyl]methanesulfonamide hydrochloride], for which the IC50 stood at 19 nM.

On to `CCCS(=O)(=O)Nc1cccc2c(Oc3ncc(OC)cc3-c3ccnc(N[C@H]4CCCNC4)n3)c(C)ccc12` [Example 424, (S)—N-(5-((5-Methoxy-3-(2-(piperidin-3-ylamino)pyrimidin-4-yl)pyridin-2-yl)oxy)-6-methylnaphthalen-1-yl)propane-1-sulfonamide hydrochloride], for which the IC50 came to 392 nM.

With `Cc1ccc2c(NS(=O)(=O)CCC(F)(F)F)cccc2c1Oc1ncccc1-c1ccnc(N[C@@H]2CNC[C@H](C)C2)n1` [Example 481, 3,3,3-Trifluoro-N-(6-methyl-5-((3-(2-(((3S,5R)-5-methylpiperidin-3-yl)amino)pyrimidin-4-yl)pyridin-2-yl)oxy)naphthalen-1-yl)propane-1-sulfonamide], the IC50 was 70 nM.

`Cc1ccc2c(NS(=O)(=O)C[C@@H]3CCC3(F)F)c(F)ccc2c1Oc1ncccc1-c1ccnc(N[C@H]2CCCNC2)n1` (single isomer, unassigned) [Example 470, hydrochloride]: the IC50 worked out at 24 nM.

Consider `Cc1cc(NS(=O)(=O)CCC(F)(F)F)c2ccccc2c1Oc1ncccc1-c1ccnc(N[C@H]2CCCNC2)n1` [Example 478, (S)-3,3,3-Trifluoro-N-(3-methyl-4-((3-(2-(piperidin-3-ylamino)pyrimidin-4-yl)pyridin-2-yl)oxy)naphthalen-1-yl)propane-1-sulfonamide], for which the IC50 was 118 nM.

Take `COCCCS(=O)(=O)Nc1c(F)ccc2c(Oc3ncccc3-c3ccnc(N[C@H]4CCCNC4)n3)c(C)ccc12` [Example 450, (S)—N-(2-Fluoro-6-methyl-5-((3-(2-(piperidin-3-ylamino)pyrimidin-4-yl)pyridin-2-yl)oxy)naphthalen-1-yl)-3-methoxypropane-1-sulfonamide hydrochloride]: the half-inhibitory concentration (IC50) was determined as 104 nM.

As to `CO[C@@H](CNc1cccc2c(Oc3ncccc3-c3ccnc(N[C@@H]4CNC[C@@H](F)C4)n3)c(C)ccc12)C(F)(F)F` (single isomer, unassigned) [Example 493, hydrochloride], the IC50 stood at 21 nM.

As to `Cc1ccc2c(NCC(O)C(C)C)cccc2c1Oc1ncccc1-c1ccnc(N[C@H]2CCCNC2)n1` (single isomer, unassigned) [Example 462, hydrochloride], the IC50 worked out at 110 nM.

As for `Cc1ccc2c(NS(=O)(=O)Cc3ccccc3)cccc2c1Oc1ncccc1-c1ccnc(N[C@@H]2CNC[C@H](C)C2)n1` [Example 479, N-[6-Methyl-5-[[3-[2-[[(3S,5R)-5-methyl-3-piperidyl]amino]pyrimidin-4-yl]-2-pyridyl]oxy]-1-naphthyl]-1-phenyl-methanesulfonamide], the half-maximal inhibitory concentration (IC50) came to 12 nM.

Regarding `Cc1ccc2c(NS(=O)(=O)C[C@H]3CCC3(F)F)c(F)ccc2c1Oc1ncccc1-c1ccnc(N[C@H]2CCCNC2)n1` (single isomer, unassigned) [Example 471, hydrochloride], the IC50 was determined as 17 nM.

Take `Cc1ccc2c(NC(=O)C3CC34CC4)c(F)ccc2c1Oc1ncccc1-c1ccnc(N[C@H]2CCCNC2)n1` (stereo partly drawn) [Example 465, N-(2-Fluoro-6-methyl-5-((3-(2-(((S)-piperidin-3-yl)amino)pyrimidin-4-yl)pyridin-2-yl)oxy)naphthalen-1-yl)spiro[2.2]pentane-1-carboxamide]: the IC50 amounted to 57 nM.

With `Cc1ccc2c(NS(=O)(=O)N(C)CC(F)(F)F)c(F)ccc2c1Oc1ncccc1-c1ccnc(N[C@H]2CNC[C@H](F)C2)n1` (single isomer, unassigned) [Example 499, hydrochloride], the IC50 turned out to be 680 nM.

`Cc1ccc2c(NS(=O)(=O)Cc3ccccc3)c(F)ccc2c1Oc1ncccc1-c1ccnc(N[C@@H]2CNC[C@@H](F)C2)n1` (single isomer, unassigned) [Example 418, hydrochloride]: the IC50 was determined as 2 nM.

For the origin of these results see patent publication US10968203B2, “Pyrimidinyl-pyridyloxy-naphthyl compounds and methods of treating IRE1-related diseases and disorders” (Genentech, Inc., priority 2017, dated 2021).
